Assay results: patent US11547681B2, “N-acylethanolamide derivatives and uses thereof” (ELIEM THERAPEUTICS, INC., priority 2016, dated 2023)

Legend:
[1] = Plasma stability (37° C., pH 7.4), dog; assay type: in vitro ADME, Beagle dog; settings: for % Remaining of Initial (n = 1), 0 min / % Remaining of Initial (n = 1), 15 min / % Remaining of Initial (n = 1), 30 min / % Remaining of Initial (n = 1), 60 min / % Remaining of Initial (n = 1), 120 min / % Remaining of Initial: dog plasma; for % Remaining of Initial (n = 1), 0 min: pH 7.4, 0 min; for % Remaining of Initial (n = 1), 15 min: pH 7.4, 15 min; for % Remaining of Initial (n = 1), 30 min: pH 7.4, 30 min; for % Remaining of Initial (n = 1), 60 min: pH 7.4, 60 min; for % Remaining of Initial (n = 1), 120 min: pH 7.4, 120 min; for half-life at 1 μM: male, Beagle, dog, plasma; for % Remaining of Initial: n = 1; for % Remaining of Initial (n = 1): Dog plasma
Experimental: (§1) Studies were carried out in mixed-gender human plasma (Lot #GLP530-5), male Sprague-Dawley rat (Lot #RAT297944, RAT313140), male CD-1 mouse (Lot #MSE237700), and male Beagle dog (Lot #BGL87670, BGL82614), collected on sodium heparin. Plasma was adjusted to pH 7.4 prior to initiating the experiments. DMSO stocks were first prepared for the test articles. Aliquots of the DMSO solutions were dosed into 700 μL of plasma, which had been pre-warmed to 37° C., at a final test article concentration of 1 μM. […] Samples were stored at 4° C. until the end of the experiment. After the final time point was sampled, the plate was mixed and then centrifuged at 3,000 rpm for 10 minutes. Calibration standards were prepared in matched matrix. […] Analytical conditions are outlined in Appendix 8-1.
as §1, with “#AS1650-2),” for “#GLP530-5),”, “#RAT297944),” for “#RAT297944, RAT313140),”, “CD-I” for “CD-1”, “#BGL91384),” for “#BGL87670, BGL82614),”, “10-1.” for “8-1.”
Studies were carried out in mixed-gender human plasma (Lot #AS1650-2), male Sprague-Dawley rat (Lot #RAT297944), male CD-1 mouse (Lot #MSE237700), and male Beagle dog (Lot #BGL91384), collected on sodium heparin. Plasma was adjusted to pH 7.4 prior to initiating the experiments. DMSO stocks were first prepared for test articles. […] Samples were stored at 4° C. until the end of experiment. After the final time point was sampled, the plate was mixed and then centrifuged at 3,000 rpm for 10 minutes. Calibration standards were prepared in matched matrix. […] Analytical conditions are outlined in Appendix 13-1.
Studies were carried out in mixed-gender human plasma (Lot #AS 1650-2), male Sprague-Dawley rat (Lot #RAT320835), male CD-1 mouse (Lot #MSE260693), and 6 male Beagle dog (Lot #BGL91384), on sodium heparin. Plasma was adjusted to pH 7.4 prior to initiating the experiments. DMSO stocks were first prepared for the test articles. Aliquots of the DMSO solutions were dosed into 700 μL of plasma, which had been pre-warmed to 37° C., at a final test article concentration of 1 μM. […] Samples were stored at 4° C. until the end of the experiment. After the final time point was sampled, the plate was mixed and then centrifuged at 3,000 rpm for 10 minutes. Calibration standards were prepared in matched matrix. […] Analytical conditions are outlined in Appendix 17-1.

[2] = male, Sprague-Dawley, rat, in vivo
Experimental: PEA was also dosed intravenously at 1 mg/kg. Blood samples were collected up to 8 hours post-dose, and PEA and PEA-prodrug plasma concentrations were determined with a qualified LC-MS/MS method. Pharmacokinetic analysis was conducted by a non-compartmental model using Phoenix WinNonlin v.6.4 software.
The IV dosing solution was prepared fresh on the day of dosing at 0.5 mg/mL in a vehicle comprised of 10% solutol HS15, 10% n-methylpyrrolidone (NMP), 10% polyethylene glycol 400 (PEG400), and 70% water. For PO dosing, torpac capsules were loaded with an appropriate amount of PEA, PEA-prodrug, or normast powder. […] The prodrug dose in group 5 was the maximum amount of powder that would fit into a single capsule.
The pharmacokinetics of PEA and the PEA-prodrug were evaluated in fasted male Sprague-Dawley rats. Rats were housed one per cage. Each rat was fitted with a jugular vein cannula (JVC) for blood collection. Rats intended for IV dosing were fitted with an additional JVC for dosing. Each study group was dosing in triplicate. Rats were fasted for a minimum of twelve hours prior to dosing. Food was returned at four hours post dosing. Animals had free access to water throughout the study.
Blood samples (˜300 μL) were collected from the rats via a JVC and placed into chilled polypropylene tubes containing sodium heparin as an anticoagulant, and 30 μL of 0.5 M citric acid. Samples were maintained chilled throughout processing. Blood samples were centrifuged at 4° C. and 3,000 g for 5 minutes. Plasma (˜150 μL) was then transferred to a chilled, labeled polypropylene tube containing 15 μL of 10% formic acid, placed on dry ice, and stored in a freezer maintained at −60° C. to −80° C.
Pharmacokinetic parameters were determined with Phoenix WinNonlin (v6.4) software using a non-compartmental model. Maximum plasma concentrations (C0) after IV dosing were estimated by extrapolation of the first two time points back to t=0. […] Area under the time concentration curve (AUC) was calculated using the linear trapezoidal rule with calculation to the last quantifiable data point, and with extrapolation to infinity if applicable. […] Mean residence time, MRT, was calculated by dividing the area under the moment curve (AUMC) by the AUC. Clearance (CL) was calculated from dose/AUC. Steady-state volume of distribution (Vss) was calculated from CL*MRT (mean residence time). Bioavailability was determined by dividing the individual PO dose normalized AUClast values by the average IV AUClast value. Any samples below the limit of quantitation were treated as zero for pharmacokinetic data analysis.
Measured concentrations of PEA in plasma samples were corrected by subtracting the concentration of PEA measured in the pre-dose samples. […] Any corrected values that were negative are reported as not determined (ND).

[3] = Simulated intestinal fluid stability, SIF containing pancreatin; assay type: in vitro ADME; settings: for % Remaining of Initial (n = 1): 1 μM (Example 14); for Measured Concentration of Drug: test article dosed at 1 μM (Example 14)
Experimental: (§2) Studies were carried out in simulated intestinal fluid containing pancreatin. Simulated intestinal fluid was prepared by dissolving 6.8 g of monobasic potassium phosphate in 1.0 L of water. Pancreatin was then added to the solution and the pH was adjusted to 6.8. A DMSO stock was first prepared for the test articles. Aliquots of the DMSO solution were dosed into 300 μL of matrix, which had been pre-warmed to 37° C., at a final test article concentration of 1 μM. An individual tube was dosed for each time point. At each time point (0, 15, 30, 60, and 120 minutes), 900 μL of ice-cold acetonitrile containing 1.0% formic acid was added to an individual tube. Starting time for each tube was staggered such that all timepoints would finish at the same time. After the conclusion of the experiment, tubes were mixed and then centrifuged at 3,000 rpm for 10 minutes. Calibration standards were prepared in matched matrix. […] Analytical conditions are outlined in Appendix 11-1.
as §2, with “prepared for test articles.” for “prepared for the test articles.”, “Aliquots of DMSO solution” for “Aliquots of the DMSO solution”, “individual tube. The starting time for” for “individual tube. Starting time for”, “that all time points would finish” for “that all timepoints would finish”, “in Appendix 14-1.” for “in Appendix 11-1.”

[4] = Summary of half life data (Table A), matrix not stated; assay type: in vitro ADME
[5] = pH 7.4, dog plasma, test article 1 μM, 37° C., pH 7.4

| Structure (SMILES) | % Remaining of Initial (n = 1), 0 min ([1]; test article 1 μM, 37° C.) | % Remaining of Initial (n = 1), 15 min ([1]; test article 1 μM, 37° C.) | % Remaining of Initial (n = 1), 30 min ([1]; test article 1 μM, 37° C.) | % Remaining of Initial (n = 1), 60 min ([1]; test article 1 μM, 37° C.) | % Remaining of Initial (n = 1), 120 min ([1]; test article 1 μM, 37° C.) | half-life at 1 μM [1, 5] | further results |
| --- | --- | --- | --- | --- | --- | --- | --- |
| CCCCCCCCCCCCCCCC(=O)NCCOC(=O)CCC [Compound I-2] | 100% | 95% | 71% | 54% | 24% | 61 min |  |
| CCCCCCCCCCCCCCCC(=O)NCCOC(=O)CCC(=O)OCC(COC(=O)CCCCCCC)OC(=O)CCCCCCC (centres unmarked) [Compound I-3, PEA-Succinate-Glycerol-Di-Caprylic] | 100% | 90% | 90% | 95% | 99% | > 120 min |  |
| CC/C=C\C/C=C\C/C=C\C/C=C\C/C=C\CCCC(=O)OCCNC(=O)CCCCCCCCCCCCCCC [Compound I-5] | 100% | 87% | 98% | 87% | 83% | > 120 min | PEA plasma concentration, 0 (pre-dose) [2]: 3.66 ng/mL |
| CCCCC/C=C\C/C=C\CCCCCCCC(=O)OCCNC(=O)CCCCCCCCCCCCCCC [Compound I-6] | 100% | 55% | 42% | 34% | 22% | 36 min |  |
| CCCCCCCCCCCCCCCC(=O)NCCOC(=O)CCC(=O)OC[C@H]1O[C@@](CO)(O[C@H]2O[C@H](CO)[C@@H](O)[C@H](O)[C@H]2O)[C@@H](O)[C@@H]1O [Compound I-7] | 100% | <1.0% | <1.0% | <1.0% | <1.0% | < 1 min |  |
| CCCCCCCCCCCCCCCC(=O)NCCOC(=O)CCC(=O)OC(CO)CO [Compound I-8] |  |  |  |  |  |  | % Remaining of Initial ([1]; 0 min, 1 μM): 100%; % Remaining of Initial ([1]; 15 min, 1 μM): <1.0%; % Remaining of Initial ([1]; 30 min, 1 μM): <1.0%; % Remaining of Initial ([1]; 60 min, 1 μM): <1.0%; % Remaining of Initial ([1]; 120 min, 1 μM): <1.0%; half-life at 1 μM ([1]; pH 7.4, dog plasma): < 1 min; % Remaining of Initial (n = 1) ([3]; 0 min): 100%; Measured Concentration of Drug ([3]; 0 min): 0.94 µM; % Remaining of Initial (n = 1) ([3]; 15 min): 17%; Measured Concentration of Drug ([3]; 15 min): 0.16 µM; % Remaining of Initial (n = 1) ([3]; 30 min): 6.8%; Measured Concentration of Drug ([3]; 30 min): 0.064 µM; % Remaining of Initial (n = 1) ([3]; 60 min): <1.3%; Measured Concentration of Drug ([3]; 60 min): 0 µM; % Remaining of Initial (n = 1) ([3]; 120 min): <1.3%; Measured Concentration of Drug ([3]; 120 min): 0 µM; half-life at 1 μM ([3]; simulated intestinal fluid with pancreatin, pH 6.8, 1 μM (Example 14)): 6.2 min; Bioavailability ([2]; po): 17.3%; Dose-normalized AUC∞ of PEA ([2]; po): 11.2 kg·ng·h/mL/mg; half-life [4]: 6.2 min |
| CCCCCCCCCCCCCCCC(=O)NCCOC(=O)CCC(=O)OCC(COC(=O)CCC)OC(=O)CCC (centres unmarked) [Compound I-11] | 100% | 61% | 40% | 18% | 5.4% | 23 min | Bioavailability ([2]; po): 4.5%; half-life [4]: < 1 min |
| CCCCC/C=C\C/C=C\CCCCCCCC(=O)OCC(COC(=O)CCC(=O)OCCNC(=O)CCCCCCCCCCCCCCC)OC(=O)CCCCCCC/C=C\C/C=C\CCCCC (centres unmarked) [Compound I-13] |  |  |  |  |  |  | % Remaining of Initial (n = 1) ([1]; 0 min, 1 μM): 100%; % Remaining of Initial (n = 1) ([1]; 15 min, 1 μM): 90%; % Remaining of Initial (n = 1) ([1]; 30 min, 1 μM): 72%; % Remaining of Initial (n = 1) ([1]; 60 min, 1 μM): 54%; % Remaining of Initial (n = 1) ([1]; 120 min, 1 μM): 23%; half-life at 1 μM ([1]; pH 7.4, Dog plasma, 1 μM): 61 min |
